# Assay results: paper PMC11904948, “Peptide‐Drug Conjugate for Therapeutic Reprogramming of Tumor‐Associated Macrophages in Breast Cancer” (Advanced Science, 2025)
# Tested on: orthotopic 4T1 tumors
# Assay: In vivo photodynamic therapy study in orthotopic 4T1
# Parameters: species or system Balb/c mice
# Procedure: Figure 5 In vitro and in vivo photodynamic therapy with MACTIDE‐V. A) Structure of MACTIDE‐V. B) MACTIDE‐V, CtrlPep‐V, and DOX were incubated with primary human macrophages (obtained from monocytes derived from human blood buffy coat) at 30 µM for 1 h at 37 °C, followed by 2 washes with media. Then, the groups shown in pink were irradiated with 10 J cm^−2 (irradiance: 170 mW cm^−2, spot diameter: 0.5 cm). […] For the irradiated groups, 4 h after administration of conjugates or PBS, the mice were irradiated with 100 J cm^−2; shown is primary tumor volume progression during treatment. Gray arrows indicate injection days. D) Bodyweight during the treatment as % of the initial one. E) Representative mIHC images of PBS, CtrlPep‐V, and MACTIDE‐V‐treated tumors, 20X magnification, scale bar = 100 µm, white triangles point to Foxp3^+ cells. F) CD8^+ T cells, CD4^+ T cells, and Treg density, n = 6 mice/group, with every dot representing the mean cell density of each tumor obtained from 20 images. G) CD8^+ T cells density in CK8^+‐dense tumor regions. n = 5 mice/group, with every dot representing the mean cell density of each tumor obtained from 20 images. Median ± interquartile range. One‐way ANOVA with multiple comparisons, ^* p ≤ 0.05, ^** p ≤ 0.01.
# Prompted by the consistent laser‐induced and preferential toxicity of MACTIDE‐V on IL‐4‐stimulated macrophages, we decided to evaluate its in vivo therapeutic effect on mice survival in the orthotopic 4T1 model. […] This prompted us to further investigate the effect of MACTIDE‐V (‐), which hereafter will be denoted simply as “MACTIDE‐V”. To obtain further information on the effect of MACTIDE‐V in this tumor model, we investigated T cell infiltration in treated tumors, using multiplex immunohistochemistry (mIHC), comparing MACTIDE‐V (‐) group to PBS and CtrlPep‐V (‐) groups.
# Orthotopic tumors were induced by injecting 5×10^4 4T1 cells in 50 µL of PBS subcutaneously into the 4th mammary fat pad of 8–12‐week‐old female Balb/c mice. When tumors reached ≈40 mm^3, mice were sorted into groups: MACTIDE‐V (+), MACTIDE‐V (‐), CtrlPep‐V (+), CtrlPep‐V (‐), MACTIDE (‐), and PBS (+). Tumors were measured using a digital caliper (Mitutoyo) and volume was calculated using (W^2 × L)/2 formula, where W is the width of a tumor and L is the length. Each group had six mice. The first intraperitoneal injection (30 nmol) was carried out on day 9 post‐tumor induction. 4 h post‐injection, the tumor area was shaved to lessen laser scattering and tumors were irradiated with 100 J cm^−2 using the NIR laser source for PDT described above. Each tumor was measured, and the spot size was adjusted every time, keeping the radiation dose always constant. Irradiation of the tumors was done in complete darkness under anesthesia. Mice recovered on a heating pad and eye drops were applied to avoid eye dryness. All mice, whether irradiated or not, were anesthetized to keep the handling conditions the same. Mouse bodyweights and tumor volumes were monitored every other day. The sacrifice of mice began on day 23 based on their tumor sizes (over 1500 mm^3) or cachexia. The final mice were sacrificed on day 36 post‐tumor induction. Tumor volume curves are shown until day 23 when mice elimination began, and the sample number became too small for statistical comparison. Survival was analyzed using GraphPad Prism to plot Kaplan–Meier survival curves and perform the Mantel–Cox test for statistical analysis. Tumors taken on similar days were analyzed using mIHC.
# The staining of 4 µm‐thick formalin‐fixed paraffin‐embedded (FFPE) tissue sections for mIHC analysis was carried out using the tyramide signal amplification‐based Opal method (Akoya Biosciences) on a Leica BOND RX automated immunostainer (Leica Microsystems). For each staining cycle, FFPE slides were deparaffinized and subjected to heat‐induced epitope retrieval at 97 or 100 °C using BOND epitope retrieval solutions ER1 or ER2 (Leica Biosystems).
# [1] = non-irradiated, versus PBS and CtrlPep‐V (‐), n = 6 mice/group
substance,measurement,setting,value
Vert‐Ahx‐G(CTKSIPPIC)SPGAK‐OH (disulfide) [MACTIDE‐V],mice survival,"Kaplan–Meier, Mantel–Cox test",no significant differences
same,"primary tumor volume, non‐irradiated (‐)","i.p. 30 nmol (1 mg Kg^−1 in Verteporfin), no laser, n = 6/group, significant respect to PBS",strongest tumor volume reduction
same,"primary tumor growth, irradiated (+)","i.p. 30 nmol, irradiated 100 J cm^−2 4 h after administration, n = 6/group, versus control groups, not statistically significant",slowed down the tumor growth
same,"body weight, non‐irradiated (‐)","i.p. 30 nmol, no laser, % of initial bodyweight",negligible effect on body weight
same,CD8^+ T cell density in CK8^+‐dense tumor regions (mIHC),"non-irradiated, n = 5 mice/group",higher CD8^+ T cell density
same,CD8^+ T cell infiltration in tumors (mIHC),[1],significantly higher infiltration of CD8^+ T cells
same,density of regulatory T cells (Tregs) in tumors (mIHC),[1],no differences in the density of regulatory T cells
